{
  "source": "the Kinase Knowledgebase extract (Sharma et al. 2016)",
  "data": [
    {"molecular_target": "MAPK14 (human) (UniProt Q16539)", "sequence (Q16539 whole entry, looked up)": "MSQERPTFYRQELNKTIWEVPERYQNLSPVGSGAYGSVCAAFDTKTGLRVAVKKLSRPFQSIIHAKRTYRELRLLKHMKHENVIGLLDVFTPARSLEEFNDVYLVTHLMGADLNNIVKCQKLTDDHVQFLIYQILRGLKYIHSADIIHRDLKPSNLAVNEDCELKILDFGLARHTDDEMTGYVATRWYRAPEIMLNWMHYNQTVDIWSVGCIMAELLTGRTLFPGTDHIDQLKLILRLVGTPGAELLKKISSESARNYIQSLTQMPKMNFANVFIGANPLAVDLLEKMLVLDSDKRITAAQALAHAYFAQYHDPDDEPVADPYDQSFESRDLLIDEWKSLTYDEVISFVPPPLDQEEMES", "experiment": "Assessment of MAPK14 Kinase Activity", "units": {"IC50": "nM"}, "values": [
      {"compound": "COC(=O)c1ccc(C)c(-n2c(SC)nc(OCc3ccc(F)cc3CNC(=O)Nc3cc(C(C)(C)C)nn3-c3ccc(C)cc3)cc2=O)c1", "IC50": 9.55},
      {"compound": "Cc1ccc(C(=O)OCCN(C)C)cc1-n1c(C)cc(OCc2ccc(F)cc2CNC(=O)Nc2cc(C(C)(C)C)nn2-c2cccc(OCCO)c2)c(Cl)c1=O", "IC50": 1.4},
      {"compound": "Cc1cc(OCc2ccccc2CNC(=O)Nc2cc(C(C)(C)C)nn2-c2ccc(O)c(Cl)c2)c(Cl)c(=O)n1Cc1ccc(C(=O)CN)cc1", "IC50": 3.6},
      {"compound": "Cc1cc(OCc2ccccc2CNC(=O)Nc2cc(C(C)(C)C)nn2-c2ccc(O)c(Cl)c2)c(Cl)c(=O)n1Cc1cccc(C(O)C(N)=O)c1", "note": "(stereo unspecified)", "IC50": 8.9},
      {"compound": "Cc1ccc(C(=O)N[C@H](C)C(N)=O)cc1-n1c(C)cc(OCc2ccccc2CNC(=O)Nc2cc(C(C)(C)C)nn2-c2ccc(O)c(Cl)c2)c(Cl)c1=O", "IC50": 2.5},
      {"compound": "CCc1c(OCc2ccccc2CNC(=O)Nc2cc(C(C)(C)C)nn2-c2cccc(F)c2)ncn(Cc2ccccc2)c1=O", "IC50": 11},
      {"compound": "COC(=O)c1ccc(Cn2c(C)cc(OCc3ccccc3CNC(=O)Nc3cc(C(C)(C)C)nn3-c3ccc(C)cc3)c(Br)c2=O)cc1", "IC50": 16.9},
      {"compound": "Cc1cc(OCc2ccccc2CNC(=O)Nc2cc(C(C)(C)C)nn2-c2ccc(Cl)c(O)c2)c(Cl)c(=O)n1Cc1ccc(C(=O)CN)cc1", "IC50": 2.4},
      {"compound": "Cc1ccc(C(=O)OCCO)cc1-n1c(C)cc(OCc2ccc(F)cc2CNC(=O)Nc2cc(C(C)(C)C)nn2-c2cccc(OCCO)c2)c(Cl)c1=O", "IC50": 1.7},
      {"compound": "COc1ccccc1Cn1c(C)cc(OCc2ccccc2CNC(=O)Nc2cc(C(C)CSC)nn2-c2cccc(O)c2)c(Cl)c1=O", "note": "(stereo unspecified)", "IC50": 20.5},
      {"compound": "Cc1cc(OCc2ccccc2CNC(=O)Nc2cc(C3CC3)nn2-c2ccccc2)c(Br)c(=O)n1Cc1ccccc1", "IC50": 176}
    ]}
  ]
}
